# Data from patent US12312292B2, “Long chain alkyl esteramine lipid compound, preparation method therefor and application thereof in nucleic acid delivery” (RinuaGene Biotechnology Co., Ltd., priority 2022, dated 2025).
# Key:
# SD rat = test: Liver injury toxicity analysis of lipid molecules in SD rat (serum ALT and AST); type: in vivo; conditions: SD rats, 3 mg/kg mRNA encoding Luciferase via tail vein, serum 24 hours after injection; compared with SM102 (FIGS. 4A, 4B)
# Excerpt: In order to further investigate the hepatic injury toxicity of exemplary compounds, we analyze the effect of the compounds of the present invention on serum alanine aminotransferase (ALT) and […] (AST) levels. The experimental 30 SD rats (15 females+15 males, purchased from Zhejiang Weitong Lihua Laboratory Animal Technology Co., Ltd.) were randomly divided into three groups, namely negative control group (PBS), SM102 group, and compound 2 group, each group of […]. According to body weight, each rat was injected with 3 mg/kg of mRNA encoding Luciferase through the tail vein, fasted overnight with supplying water, and whole blood was collected 24 hours after injection, and serum was isolated. The concentration of ALT and AST in the serum of each rat was detected with a fully automated biochemical analyzer, and the test results are shown in FIGS. 4A and 4B.
# [1] = In vivo expression distribution analysis of delivered luciferase mRNA (RT-PCR in tissues); set-up: species or system C57BL/6J mice; conditions: delivered luciferase mRNA, single intramuscular injection 50 μg, 2 h-336 h, RT-PCR
# Description: In order to investigate the distribution features of lipid-delivering mRNA in vivo, we analyzed the distribution features of the reporter luciferase mRNA of the compounds of the present invention in C57BL/6J mice after administration by a single intramuscular injection. The experimental 10 C57BL/6J mice were enrolled, male and female, each administered 50 μg, with SM102 as the control.
# Animals in the negative control group were collected at 2 h and 336 h after administration, and animals in the test group were collected at 2 h, 6 h, 24 h, 48 h, 72 h, 120 h, 168 h, and 336 h after administration whole blood, bone marrow, liver, spleen, heart, kidney, inguinal lymph nodes, mesenteric lymph nodes, spleen, brain, stomach, small intestine, non-injection site muscle, injection site muscle tissue, etc. The RNA content in the samples at each time point was detected by RT-PCR, and the lower limit of quantification of the method was […] to reflect the distribution features in C57BL/6J mice.
# BALB/c female mice = test: Acute toxicity analysis of lipid molecules (cationic lipid LNP) in BALB/c female mice; conditions: blood 24 h after injection, Ave(SD)
# luciferase mRNA = test: Detection of reporter gene (luciferase mRNA) expression in mice in vivo; set-up: species or system BALB/c female mice; conditions: LNP-delivered luciferase mRNA, quadriceps muscle injection, IVIS 24 h after injection; dose (5 or 14 μg mRNA) not given
# Description: The prepared LNP-encapsulated mRNA solution was diluted with PBS buffer to obtain the solution for injection. BALB/c female mice at about 20 g were injected with injection solution at the quadriceps muscle site of mice with an insulin syringe, and each mouse was injected with 50 μL. Two doses were designed: one dose of “5 μg mRNA per 50 μL of injection solution” and the other dose of “14 μg mRNA per 50 μL of injection solution”. BALB/c female mice at about 20 g are injected with PBS buffer at the quadriceps muscle site of mice with an insulin syringe, and each mouse was injected with 50 μL.
# After the mice were injected for 24 h, in vivo expression of Luciferase was detected with Perkinelmer's IVIS. The substrate was D-luciferin Sodium salt (GOLDBIO, LUCNA-1G), which was formulated into a concentration of 15 mg/mL with normal saline, filtered and sterilized with a 0.22 μm filter membrane, and stored at −20° C. in aliquots protected from light. Before imaging, each mouse at about 20 g was intraperitoneally injected with 200 μL of substrate solution for 10-20 minutes, and then was anesthetized with isoflurane gas and placed prone on the imaging plate to detect the fluorescence of the animal in vivo, and the results are shown in Table 2.
smiles,measurement,setting,value
CCCCCCCCCCCOC(=O)CCCCCN(CCCCCCO)CCCCCCCC(=O)OC(CCCCCCCC)CCCCCCCC [Example 2],Elevation effect on serum ALT and AST,SD rat,significantly lower than these of compound SM102
same,"Exposure in tissues and organs, from high to low",[1],"injection site muscle, inguinal lymph nodes, whole blood, spleen, non-injection site muscle, bone marrow, heart, liver, mesenteric lymph nodes, kidney, small intestine and brain"
same,Alanine aminotransferase,"BALB/c female mice; high dose group, 150 μg LNP/pc",41.54 U/L
same,Alkaline phosphatase (ALP),"BALB/c female mice; high dose group, 150 μg LNP/pc",111.86 U/L
same,Aspartate aminotransferase,"BALB/c female mice; high dose group, 150 μg LNP/pc",124.48 U/L
same,Creatinine,"BALB/c female mice; high dose group, 150 μg LNP/pc",12.6 µmol/L
same,Total bilirubin (TBIL),"BALB/c female mice; high dose group, 150 μg LNP/pc",1.25
same,γ-Glutamyltransferase (GGT),"BALB/c female mice; high dose group, 150 μg LNP/pc",0.20 (0.18) U/L
same,Alanine aminotransferase,"BALB/c female mice; low dose group, 50 μg/pc",35.32 (2.51) U/L
same,Alkaline phosphatase (ALP),"BALB/c female mice; low dose group, 50 μg/pc",113.3 U/L
same,Aspartate aminotransferase,"BALB/c female mice; low dose group, 50 μg/pc",111.74 U/L
same,Creatinine,"BALB/c female mice; low dose group, 50 μg/pc",12.6 µmol/L
same,Total bilirubin (TBIL),"BALB/c female mice; low dose group, 50 μg/pc",1.22 (0.20)
same,γ-Glutamyltransferase (GGT),"BALB/c female mice; low dose group, 50 μg/pc",0.40 (0.37) U/L
same,Average fluorescence intensity,luciferase mRNA,1.144E+06 P/s/cm^2/sr
